From patent publication US11759462B2, “Spirocyclic compounds as tryptophan hydroxylase inhibitors” (priority 2013, dated 2023)
pIC50: −log10 of the molar value.

Each compound was assayed against T1, Recombinant human TPH1 (MBP tagged) (Homo sapiens, UniProt P17752) (assay: TPH1 in vitro inhibition assay (kinetic fluorescence)). Details: TPH1 Range (TPH1 inhibition IC50).
T1 construct: cloning full length human TPH1 cDNA in to a bacterial pMAL-c5E expression vector; made in house; host or cells: E. coli BL21 (DE3)
T1 sequence (P17752 1-444): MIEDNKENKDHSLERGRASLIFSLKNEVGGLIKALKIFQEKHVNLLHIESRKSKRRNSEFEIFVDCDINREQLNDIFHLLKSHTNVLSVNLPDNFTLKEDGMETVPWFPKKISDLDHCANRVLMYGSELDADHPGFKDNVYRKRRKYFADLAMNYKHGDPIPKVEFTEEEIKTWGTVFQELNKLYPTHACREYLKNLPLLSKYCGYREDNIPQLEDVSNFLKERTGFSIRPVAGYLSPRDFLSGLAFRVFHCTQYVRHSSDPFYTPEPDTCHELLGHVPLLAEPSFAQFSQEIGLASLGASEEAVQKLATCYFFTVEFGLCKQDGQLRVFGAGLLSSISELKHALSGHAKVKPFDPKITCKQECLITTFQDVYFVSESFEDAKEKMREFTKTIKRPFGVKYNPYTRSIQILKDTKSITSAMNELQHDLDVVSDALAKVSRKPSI
Type: biochemical
Description: Recombinant human TPH1 (rTPH1 GenBank™ accession no. NP_004179) was expressed by cloning full length human TPH1 cDNA in to a bacterial pMAL-c5E expression vector to produce maltose-binding protein (MBP) TPH1 fusion proteins. E. coli BL21 (DE3) containing pMAL-c5E-TPH1 was used for protein generation and the recombinant protein was purified utilizing standard column chromatography techniques. The MBP tagged TPH1 (MBP-TPH1) was used directly to screen compounds as described below. Recombinant human TPH2 (rTPH2 GenBank™ accession no. 173353), PheOH (rPheOH GenBank™ accession no. K03020) and TH (rTH GenBank™ accession no. L20679) with an MBP tag were produced similarly.
TPH1 activities were measured in an assay containing 200 mM ammonium sulfate, 7 mM DTT, 50 μg/mL catalase, 25 μM ammonium iron sulfate, 50 mM MES, pH 7.1. Test compounds were diluted in 100% DMSO and added to the assay plate in 1 μL aliquots at 100× final concentration. Fifty microliters of assay buffer containing 30 nM TPH1 enzyme (MBP tagged) were added to the plate wells containing the test compound by the use of an Eppendorf repeater pipette. The reaction was initiated by the addition of 50 μL of assay buffer containing 60 μM tryptophan and 72 μM 6-6-methyltetra-hydropterin (2× final concentration) by the use of a Multidrop (LabSystems). Final reaction conditions were 15 nM TPH1 enzyme, 30 μM tryptophan, 36 μM 6-methyltetra-hydropterin, 200 mM ammonium sulfate, 7 mM DTT, […], 25 μM ferrous ammonium sulfate, 50 mM MES, pH 7.1, with atmospheric oxygen at room temperature. The plate was immediately placed onto an M5 plate reader (Molecular Devices) for kinetic fluorescence measurement using an excitation setting of 300 nm and an emission setting of 335 nm. Fluorescence reads are recorded in kinetic mode for 300 seconds (5 minutes).
Kinetic assay data for compounds at specific concentrations was translated into slopes using the Softmax Pro software on a Spectramax reader, and compound inhibition slopes were compared with wells containing enzyme, substrate and cofactor in the absence of inhibitor (100%), and wells containing substrate and cofactor in the absence of enzyme (0%). DMSO concentration in the assay was 1%. […] IC50's were determined using Graphpad Prism.

`Cc1ccn(-c2cc(-c3ccc(Cl)c(Cl)c3)ccc2[C@@H](Oc2cc(N3CCC4(CC3)CN[C@H](C(=O)O)C4)nc(N)n2)C(F)(F)F)n1` [Example 1af, (S)-8-(2-amino-6-((R)-1-(3′,4′-dichloro-3-(3-methyl-1H-pyrazol-1-yl)-[1,1′-biphenyl]-4-yl)-2,2,2-trifluoroethoxy)pyrimidin-4-yl)-2,8-diazaspiro[4.5]decane-3-carboxylic acid] was tested, and the pIC50 was greater than 7.30.

Same assay, conditions: read-out: TPH1 Range (TPH1 inhibition IC50)

`Cc1ccn(-c2cc(-c3ccc([S+](C)[O-])cc3)ccc2[C@@H](Oc2cc(N3CCC4(CC3)CN[C@H](C(=O)O)C4)nc(N)n2)C(F)(F)F)n1` (stereo partly drawn) [Example 1a, (3S)-8-(2-amino-6-((1R)-2,2,2-trifluoro-1-(3-(3-methyl-1H-pyrazol-1-yl)-4′-(methylsulfinyl)-[1,1′-biphenyl]-4-yl)ethoxy)pyrimidin-4-yl)-2,8-diazaspiro[4.5]decane-3-carboxylic acid] and `Cc1ccc(-c2ccc([C@@H](Oc3cc(N4CCC5(CC4)CN[C@H](C(=O)O)C5)nc(N)n3)C(F)(F)F)c(-n3ccc(C)n3)c2)cc1` [Example 1ae, (S)-8-(2-amino-6-((R)-2,2,2-trifluoro-1-(4′-methyl-3-(3-methyl-1H-pyrazol-1-yl)-[1,1′-biphenyl]-4-yl)ethoxy)pyrimidin-4-yl)-2,8-diazaspiro[4.5]decane-3-carboxylic acid] cannot be ordered by pIC50: greater than 7.30 for the first, greater than 7.30 for the second.

`Cc1ccn(-c2cc(-c3ccc(CN)cc3)ccc2[C@@H](Oc2cc(N3CCC4(CC3)CN[C@H](C(=O)O)C4)nc(N)n2)C(F)(F)F)n1` [Example 1ab, (S)-8-(2-amino-6-((R)-1-(4′-(aminomethyl)-3-(3-methyl-1H-pyrazol-1-yl)-[1,1′-biphenyl]-4-yl)-2,2,2-trifluoroethoxy)pyrimidin-4-yl)-2,8-diazaspiro[4.5]decane-3-carboxylic acid] and `Cc1ccn(-c2cc(-c3ccc(Cl)cc3)ccc2[C@@H](Oc2cc(N3CCC4(CC3)CN[C@H](C(=O)O)C4)nc(N)n2)C(F)(F)F)n1` [Example 1ah, (S)-8-(2-amino-6-((R)-1-(4′-chloro-3-(3-methyl-1H-pyrazol-1-yl)-[1,1′-biphenyl]-4-yl)-2,2,2-trifluoroethoxy)pyrimidin-4-yl)-2,8-diazaspiro[4.5]decane-3-carboxylic acid] cannot be ordered by pIC50: greater than 7.30 for the first, greater than 7.30 for the second.

First: Cc1ccn(-c2cc(-c3cccc(F)c3)ccc2[C@@H](Oc2cc(N3CCC4(CC3)CN[C@H](C(=O)O)C4)nc(N)n2)C(F)(F)F)n1 [Example 1ac, (S)-8-(2-amino-6-((R)-2,2,2-trifluoro-1-(3′-fluoro-3-(3-methyl-1H-pyrazol-1-yl)-[1,1′-biphenyl]-4-yl)ethoxy)pyrimidin-4-yl)-2,8-diazaspiro[4.5]decane-3-carboxylic acid]
Second: Cc1ccn(-c2cc(-c3ccc(C)c(F)c3)ccc2[C@@H](Oc2cc(N3CCC4(CC3)CN[C@H](C(=O)O)C4)nc(N)n2)C(F)(F)F)n1 [Example 1aq, (S)-8-(2-amino-6-((R)-2,2,2-trifluoro-1-(3′-fluoro-4′-methyl-3-(3-methyl-1H-pyrazol-1-yl)-[1,1′-biphenyl]-4-yl)ethoxy)pyrimidin-4-yl)-2,8-diazaspiro[4.5]decane-3-carboxylic acid]
The pIC50 of the first is higher: greater than 7.30 for the first, 6.52 to 7.30 for the second. The first is the more potent here.

`Cc1ccn(-c2cc(-c3ccc4ncccc4c3)ccc2[C@@H](Oc2cc(N3CCC4(CC3)CN[C@H](C(=O)O)C4)nc(N)n2)C(F)(F)F)n1` [Example 1ad, (S)-8-(2-amino-6-((R)-2,2,2-trifluoro-1-(2-(3-methyl-1H-pyrazol-1-yl)-4-(quinolin-6-yl)phenyl)ethoxy)pyrimidin-4-yl)-2,8-diazaspiro[4.5]decane-3-carboxylic acid] and `Cc1ccn(-c2cc(-c3ccc(F)c(F)c3)ccc2[C@@H](Oc2cc(N3CCC4(CC3)CN[C@H](C(=O)O)C4)nc(N)n2)C(F)(F)F)n1` [Example 1ag, (S)-8-(2-amino-6-((R)-1-(3′,4′-difluoro-3-(3-methyl-1H-pyrazol-1-yl)-[1,1′-biphenyl]-4-yl)-2,2,2-trifluoroethoxy)pyrimidin-4-yl)-2,8-diazaspiro[4.5]decane-3-carboxylic acid] cannot be ordered by pIC50: greater than 7.30 for the first, greater than 7.30 for the second.

`Cc1ccn(-c2cc(-c3cncnc3)ccc2[C@@H](Oc2cc(N3CCC4(CC3)CN[C@H](C(=O)O)C4)nc(N)n2)C(F)(F)F)n1` [Example 1ai, (S)-8-(2-amino-6-((R)-2,2,2-trifluoro-1-(2-(3-methyl-1H-pyrazol-1-yl)-4-(pyrimidin-5-yl)phenyl)ethoxy)pyrimidin-4-yl)-2,8-diazaspiro[4.5]decane-3-carboxylic acid] and `Cc1cc(Cl)cc(-c2ccc([C@@H](Oc3cc(N4CCC5(CC4)CN[C@H](C(=O)O)C5)nc(N)n3)C(F)(F)F)c(-n3ccc(C)n3)c2)c1` [Example 1an, (S)-8-(2-amino-6-((R)-1-(3′-chloro-5′-methyl-3-(3-methyl-1H-pyrazol-1-yl)-[1,1′-biphenyl]-4-yl)-2,2,2-trifluoroethoxy)pyrimidin-4-yl)-2,8-diazaspiro[4.5]decane-3-carboxylic acid] cannot be ordered by pIC50: greater than 7.30 for the first, greater than 7.30 for the second.

First: Cc1ccn(-c2cc(-c3cc(Cl)cc(C(F)(F)F)c3)ccc2[C@@H](Oc2cc(N3CCC4(CC3)CN[C@H](C(=O)O)C4)nc(N)n2)C(F)(F)F)n1 [Example 1ak, (S)-8-(2-amino-6-((R)-1-(3′-chloro-3-(3-methyl-1H-pyrazol-1-yl)-5′-(trifluoromethyl)-[1,1′-biphenyl]-4-yl)-2,2,2-trifluoroethoxy)pyrimidin-4-yl)-2,8-diazaspiro[4.5]decane-3-carboxylic acid]
Second: Cc1ccn(-c2cc(-c3cccc(C(F)(F)F)c3)ccc2[C@@H](Oc2cc(N3CCC4(CC3)CN[C@H](C(=O)O)C4)nc(N)n2)C(F)(F)F)n1 [Example 1am, (S)-8-(2-amino-6-((R)-2,2,2-trifluoro-1-(3-(3-methyl-1H-pyrazol-1-yl)-3′-(trifluoromethyl)-[1,1′-biphenyl]-4-yl)ethoxy)pyrimidin-4-yl)-2,8-diazaspiro[4.5]decane-3-carboxylic acid]
The pIC50 of the first is lower: 6.52 to 7.30 for the first, greater than 7.30 for the second.

First: CCOc1ccc(-c2ccc([C@@H](Oc3cc(N4CCC5(CC4)CN[C@H](C(=O)O)C5)nc(N)n3)C(F)(F)F)c(-n3ccc(C)n3)c2)cc1Cl [Example 1al, (S)-8-(2-amino-6-((R)-1-(3′-chloro-4′-ethoxy-3-(3-methyl-1H-pyrazol-1-yl)-[1,1′-biphenyl]-4-yl)-2,2,2-trifluoroethoxy)pyrimidin-4-yl)-2,8-diazaspiro[4.5]decane-3-carboxylic acid]
Second: Cc1ccn(-c2cc(-c3ccc(F)c(Cl)c3)ccc2[C@@H](Oc2cc(N3CCC4(CC3)CN[C@H](C(=O)O)C4)nc(N)n2)C(F)(F)F)n1 [Example 1ar, (S)-8-(2-amino-6-((R)-1-(3′-chloro-4′-fluoro-3-(3-methyl-1H-pyrazol-1-yl)-[1,1′-biphenyl]-4-yl)-2,2,2-trifluoroethoxy)pyrimidin-4-yl)-2,8-diazaspiro[4.5]decane-3-carboxylic acid]
The pIC50 of the first is higher: greater than 7.30 for the first, 6.52 to 7.30 for the second. The first is the more potent here.

`Cc1ccn(-c2cc(-c3ccc(Cl)c(F)c3)ccc2[C@@H](Oc2cc(N3CCC4(CC3)CN[C@H](C(=O)O)C4)nc(N)n2)C(F)(F)F)n1` [Example 1ao, (S)-8-(2-amino-6-((R)-1-(4′-chloro-3′-fluoro-3-(3-methyl-1H-pyrazol-1-yl)-[1,1′-biphenyl]-4-yl)-2,2,2-trifluoroethoxy)pyrimidin-4-yl)-2,8-diazaspiro[4.5]decane-3-carboxylic acid] and `CCOc1cccc(-c2ccc([C@@H](Oc3cc(N4CCC5(CC4)CN[C@H](C(=O)O)C5)nc(N)n3)C(F)(F)F)c(-n3ccc(C)n3)c2)c1` [Example 1ap, (S)-8-(2-amino-6-((R)-1-(3′-ethoxy-3-(3-methyl-1H-pyrazol-1-yl)-[1,1′-biphenyl]-4-yl)-2,2,2-trifluoroethoxy)pyrimidin-4-yl)-2,8-diazaspiro[4.5]decane-3-carboxylic acid] cannot be ordered by pIC50: greater than 7.30 for the first, greater than 7.30 for the second.
